Test results published in article PMC11062899, “De novo development of small cyclic peptides that are orally bioavailable” (Nature Chemical Biology, 2023).
Several values for one entry are separate records, joined by “and”; a condition that tells them apart may be missing. Identical values can stand only once. Like-named read-outs stand apart in the source and are kept apart here.

What was measured:
human α-thrombin = human α-thrombin (Homo sapiens, UniProt P00734); assay: Protease inhibition, Ki for human α-thrombin (fluorogenic substrate Z-Gly-Gly-Arg-AMC); assay type: biochemical; conditions: for Human alpha thrombin inhibition, slope normalized to DMSO: replicates R1-R3
Method: (§1) The inhibition constants (Ki) of cyclic peptides were calculated by measuring thrombin inhibition in the presence of different concentrations of the cyclic peptides. […] Human α-thrombin (Molecular Innovations) and rat α-thrombin (Molecular Innovations) were used at final concentrations of 2 nM and 3 nM, respectively, and fluorogenic substrate (Z-Gly-Gly-Arg-AMC, Bachem) was used at a concentration of 50 μM. Enzymatic activity was determined by measuring fluorescent gain on a Tecan Infinite M200 Pro microplate reader (excitation: 360 nm, emission: 465 nm) or a PHERAstar FSX microplate reader (excitation: 380 nm, emission: 440 nm) for 30 min at 25 °C with a fluorescent readout every 3 min. The two instruments were controlled with Tecan Infinite M200 Pro instrument software (iControl, version 1.12) and PHERAstar FSX software (version 5.70, edition 8), respectively. Protease inhibition was calculated by comparing the enzymatic activity to a control without cyclic peptide.
(§2) Half maximal inhibitory concentration (IC50) values were determined using a four-parameter logistic regression model in GraphPad Prism 9 to fit sigmoidal curves to the acquired data points according to equation (2) below.2 y=b+a−b/1+10^(logIC50−x)p where a and b represent the measured inhibition maximum and minimum, respectively; x is the logarithm of peptide concentration; y is the thrombin activity compared to a control without the cyclic peptide; and p is the Hill coefficient.
(§3) Ki values were calculated using the IC50 and the Cheng–Prusoff equation (equation (3)).3 Ki=IC50/1+S0/Km where Km is the Michaelis–Menten constant of the enzyme for the substrate used in the assay, and [S]0 is the initial substrate concentration.

rat α-thrombin = biological target: T1, rat α-thrombin (Rattus norvegicus, UniProt P18292); assay: Protease inhibition, Ki for rat α-thrombin (fluorogenic substrate Z-Gly-Gly-Arg-AMC); assay type: biochemical; conditions: for Rat alpha thrombin inhibition, slope normalized to DMSO: replicates R1-R3
T1 construct: rat α-thrombin (Molecular Innovations) were used at final concentrations of 2 nM and 3 nM; purchased Molecular Innovations
Method: as §1, §2, §3

[1] = Passive artificial membrane permeability (PAMPA);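 as to Permeability% Average: top well sample relative to theoretical equilibrium sample by TIC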
[2] = peptide concentration 1.00E+02 uM
[3] = peptide concentration 1.19E-05 uM
[4] = peptide concentration 1.22E-02 uM
[5] = peptide concentration 1.25E+01 uM
[6] = peptide concentration 1.53E-03 uM
[7] = peptide concentration 1.56E+00 uM
[8] = peptide concentration 1.91E-04 uM
[9] = peptide concentration 1.95E-01 uM
[10] = peptide concentration 2.38E-05 uM
[11] = peptide concentration 2.44E-02 uM
[12] = peptide concentration 2.50E+01 uM
[13] = peptide concentration 3.05E-03 uM
[14] = peptide concentration 3.12E+00 uM
[15] = peptide concentration 3.81E-04 uM
[16] = peptide concentration 3.91E-01 uM
[17] = peptide concentration 4.77E-05 uM
[18] = peptide concentration 4.88E-02 uM
[19] = peptide concentration 5.00E+01 uM
[20] = peptide concentration 6.10E-03 uM
[21] = peptide concentration 6.25E+00 uM
[22] = peptide concentration 7.63E-04 uM
[23] = peptide concentration 7.81E-01 uM
[24] = peptide concentration 9.54E-05 uM
[25] = peptide concentration 9.77E-02 uM

Ki (human α-thrombin; average of R1-R3, read-out: Human alpha thrombin inhibition, Ki Average): 13.5 µM
Human alpha thrombin inhibition, slope normalized to DMSO (human α-thrombin; [2]): 31.6 and 35.9 and 30.7
Human alpha thrombin inhibition, slope normalized to DMSO (human α-thrombin; [3]): 101.3 and 100.2 and 102.3
Human alpha thrombin inhibition, slope normalized to DMSO (human α-thrombin; [4]): 84.3 and 92.4 and 75.3
Human alpha thrombin inhibition, slope normalized to DMSO (human α-thrombin; [5]): 48.4 and 51.8 and 74.4
Human alpha thrombin inhibition, slope normalized to DMSO (human α-thrombin; [6]): 103.9 and 109.7 and 90.7
Human alpha thrombin inhibition, slope normalized to DMSO (human α-thrombin; [7]): 99.7 and 78.4 and 78.8
Human alpha thrombin inhibition, slope normalized to DMSO (human α-thrombin; [8]): 77.5 and 96.9 and 61.6
Human alpha thrombin inhibition, slope normalized to DMSO (human α-thrombin; [9]): 89.1 and 92.2 and 110.9
Human alpha thrombin inhibition, slope normalized to DMSO (human α-thrombin; [10]): 100.0 and 95.0 and 108.2
Human alpha thrombin inhibition, slope normalized to DMSO (human α-thrombin; [11]): 94.6 and 85.5 and 101.2
Human alpha thrombin inhibition, slope normalized to DMSO (human α-thrombin; [12]): 53.9 and 24.7 and 59.2
Human alpha thrombin inhibition, slope normalized to DMSO (human α-thrombin; [13]): 85.8 and 106.8 and 92.3
Human alpha thrombin inhibition, slope normalized to DMSO (human α-thrombin; [14]): 95.0 and 56.6 and 60.0
Human alpha thrombin inhibition, slope normalized to DMSO (human α-thrombin; [15]): 92.8 and 100.9 and 102.1
Human alpha thrombin inhibition, slope normalized to DMSO (human α-thrombin; [16]): 92.5 and 76.5 and 47.1
Human alpha thrombin inhibition, slope normalized to DMSO (human α-thrombin; [17]): 103.7 and 96.6 and 101.3
Human alpha thrombin inhibition, slope normalized to DMSO (human α-thrombin; [18]): 96.6 and 92.9 and 84.5
Human alpha thrombin inhibition, slope normalized to DMSO (human α-thrombin; [19]): 32.5 and 38.9 and 43.6
Human alpha thrombin inhibition, slope normalized to DMSO (human α-thrombin; [20]): 87.4 and 95.7 and 97.4
Human alpha thrombin inhibition, slope normalized to DMSO (human α-thrombin; [21]): 82.6 and 51.0 and 64.7
Human alpha thrombin inhibition, slope normalized to DMSO (human α-thrombin; [22]): 95.6 and 106.3 and 100.0
Human alpha thrombin inhibition, slope normalized to DMSO (human α-thrombin; [23]): 102.1 and 69.9 and 79.9
Human alpha thrombin inhibition, slope normalized to DMSO (human α-thrombin; [24]): 104.1 and 95.0 and 102.4
Human alpha thrombin inhibition, slope normalized to DMSO (human α-thrombin; [25]): 95.1 and 96.0 and 81.6
Ki (rat α-thrombin; average of R1-R3, read-out: Rat alpha thrombin inhibition, Ki Average): 5.05 µM
Rat alpha thrombin inhibition, slope normalized to DMSO (rat α-thrombin; [2]): 15.8 and 16.4 and 8.2
Rat alpha thrombin inhibition, slope normalized to DMSO (rat α-thrombin; [3]): 106.1 and 100.1 and 101.4
Rat alpha thrombin inhibition, slope normalized to DMSO (rat α-thrombin; [4]): 97.4 and 88.6 and 86.5
Rat alpha thrombin inhibition, slope normalized to DMSO (rat α-thrombin; [5]): 49.8 and 47.2 and 35.5
Rat alpha thrombin inhibition, slope normalized to DMSO (rat α-thrombin; [6]): 108.8 and 100.7 and 95.7
Rat alpha thrombin inhibition, slope normalized to DMSO (rat α-thrombin; [7]): 89.9 and 88.6 and 50.7
Rat alpha thrombin inhibition, slope normalized to DMSO (rat α-thrombin; [8]): 112.7 and 100.1 and 96.0
Rat alpha thrombin inhibition, slope normalized to DMSO (rat α-thrombin; [9]): 101.4 and 102.2 and 81.9
Rat alpha thrombin inhibition, slope normalized to DMSO (rat α-thrombin; [10]): 107.4 and 102.3 and 104.3
Rat alpha thrombin inhibition, slope normalized to DMSO (rat α-thrombin; [11]): 116.5 and 84.1 and 102.5
Rat alpha thrombin inhibition, slope normalized to DMSO (rat α-thrombin; [12]): 36.8 and 26.2 and 18.8
Rat alpha thrombin inhibition, slope normalized to DMSO (rat α-thrombin; [13]): 100.6 and 93.4 and 89.7
Rat alpha thrombin inhibition, slope normalized to DMSO (rat α-thrombin; [14]): 83.7 and 72.5 and 77.4
Rat alpha thrombin inhibition, slope normalized to DMSO (rat α-thrombin; [15]): 105.1 and 100.1 and 102.4
Rat alpha thrombin inhibition, slope normalized to DMSO (rat α-thrombin; [16]): 105.0 and 93.1 and 59.9
Rat alpha thrombin inhibition, slope normalized to DMSO (rat α-thrombin; [17]): 108.7 and 101.6 and 109.2
Rat alpha thrombin inhibition, slope normalized to DMSO (rat α-thrombin; [18]): 113.8 and 100.8 and 93.5
Rat alpha thrombin inhibition, slope normalized to DMSO (rat α-thrombin; [19]): 30.2 and 11.5 and 16.5
Rat alpha thrombin inhibition, slope normalized to DMSO (rat α-thrombin; [20]): 96.7 and 102.7 and 104.0
Rat alpha thrombin inhibition, slope normalized to DMSO (rat α-thrombin; [21]): 71.7 and 61.7 and 68.8
Rat alpha thrombin inhibition, slope normalized to DMSO (rat α-thrombin; [22]): 91.7 and 100.9 and 102.6
Rat alpha thrombin inhibition, slope normalized to DMSO (rat α-thrombin; [23]): 88.3 and 82.4 and 91.2
Rat alpha thrombin inhibition, slope normalized to DMSO (rat α-thrombin; [24]): 111.4 and 103.7 and 104.6
Rat alpha thrombin inhibition, slope normalized to DMSO (rat α-thrombin; [25]): 106.1 and 99.6 and 107.1
IC50 (rat α-thrombin; single replicates R1-R3, read-out: Rat alpha thrombin inhibition, IC50): 11.8 µM and 9.26 µM and 6.34 µM
Ki (rat α-thrombin; single replicates R1-R3, read-out: Rat alpha thrombin inhibition, Ki): 6.5 µM and 5.12 µM and 3.51 µM
PAMPA permeability: % permeability ([1]; 50 μM, 12–18 h, acceptor concentration relative to equilibrium): 32 ± 6%
Permeability% (single replicates R1–R3) ([1]; 50 μM, 13 h (Fig. 5d)): 25.39% and 36.84% and 33.06%
Permeability% Average ([1]; 50 μM, 13 h (Fig. 5d)): 31.8%
Papp at 50 μM ([1]; PAMPA, pH 7.4): 3.47 ×10⁻⁶ cm/s
Compound: O=C1C[C@H]2CCCN2C(=O)[C@H](Cc2ccccc2)NC(=O)[C@@H](NC(=O)c2ccc(Cl)s2)CC=CCCN1 [compound 38]
